Consider 1 compound from patent US20260325546A1, “METHODS OF TREATMENT USING DRY POWDER COMPOSITIONS OF TREPROSTINIL PRODRUGS” (Insmed Incorporated, priority 2024, published 2026).

One series deals with healthy adults. In words: Phase I single-dose safety and tolerability study of TPIP in healthy adults. The format is in vivo, human. The method, then:
Specifically, in a Phase I safety, tolerability, and PK study, healthy adults were administered single doses of 112.5 μg, 225 μg, 450 μg, and 675 μg of a compound of Formula (II).

Series [1] has as its system subjects with pulmonary hypertension, including pulmonary arterial hypertension. In words: Phase 2 safety and efficacy study in subjects with pulmonary hypertension. The format is in vivo, human. The protocol: In a Phase 2 safety and efficacy study, the following doses of were investigated in subjects with pulmonary hypertension, including pulmonary arterial hypertension: 80 μg, 160 μg, 240 μg, 320 μg, 400 μg, 480 μg, and 640 μg. In this study, patients were administered a starting dose of 80 μg of the TPIP and the dose was titrated up to 640 μg according to FIG. 2.

The nature of series [2]: Nonclinical studies of TP: conversion of prodrug to treprostinil. Particulars: nonclinical (in vitro and in vivo). The format is in vitro ADME. From the text: (§1) Treprostinil palmitil (TP) is a hexadecyl ester prodrug of treprostinil (TRE). In the lung, TP is hydrolyzed by esterases to TRE and hexadecanol.
Series [3] can be described thus: Nonclinical studies of TP: delivery / PK and PD profile. The format is in vivo.
From the text: as §1

In a further series the test system is rodent model of PAH. The series is described as follows: Rodent model of PAH. The format is in vivo. Particulars: inhibits associated adverse pathology and pathophysiology.
From the text: as §1

The nature of series [4]: Preclinical safety / toxicology of TP. The format is in vivo. The conditions noted are these: nonclinical.
From the text: as §1

Turning to `CCCCCCCCCCCCCCCCOC(=O)COc1cccc2c1C[C@H]1C[C@@H](O)[C@H](CC[C@@H](O)CCCCC)[C@H]1C2` [treprostinil palmitil], the “serious or severe TEAEs (printed TEALs)” value in the series with healthy adults (single doses 112.5, 225, 450, 675 μg) is “no serious or severe TEALs were observed”. Also, in the series with healthy adults (single doses 112.5, 225, 450, 675 μg / highest doses tested), the safety and tolerability entry was “safe and well-tolerated”. Further, the tolerability entry in series [1] (80 μg to 640 μg, titrated) is “well tolerated”. For the same compound, in series [1] (640 μg, highest dose administered in a clinical trial), the “tolerability of 640 μg” value is given as “well tolerated”. For the same compound, the “efficacy at higher doses” value in series [1] (higher doses) is on record as “promising efficacy”. Also, in series [2], the conversion to treprostinil result is “converted from the prodrug to the active drug, treprostinil”. The delivery of treprostinil entry in series [3] is “sustained delivery of treprostinil to the lungs and systemic circulation”. The “efficacy in PAH model” value with rodent model of PAH is “efficacious in a rodent model of PAH”. Also, in series [4], the preclinical safety result is “did not demonstrate concerning preclinical safety or toxicological findings”.
